These results are taken from US8012970B2, “Derivatives of 1-{[1,5-bis(4-chlorophenyl)-2-methyl-1H-pyrrol-3-yl]methyl}-4-methylpiperazine, synthesis process and uses thereof” (priority 2005, dated 2011).

Common to all, as to type: cell-based
Data set [1] concerns VERO cells. The data set can be described thus: Cytotoxicity on Vero cell monolayers (MNTD50). To be noted: maximum 50% non-toxic dose, 5 days. The protocol:
The cytotoxicity was evaluated on Vero cell monolayers (ICN-Flow). They were inoculated in 6-well plates each containing 9×10^4 cells and incubated in DMEM with 5% FCS for 24 h at 37° C. in a 5% CO2 incubator. After 24 h of culture, the medium was changed and a new medium containing decreasing doses of the substances under study was added.
After 5 days, the cells were trypsinized and counted in a Neubauer chamber under a light microscope. All the tests were done in triplicate. The maximum 50% non-toxic dose (MNTD50) was defined as the drug concentration that decreased cell multiplication less than 50% with respect to the control.

For data set [2], the system named is M. tuberculosis 103471. Nature of the data set: Antimycobacterial activity, MIC in Middlebrook 7H9 broth (NCCLS procedure). The note with it: for MIC: Mycobacterium tuberculosis, 103471, read-out: M. tuberculosis 103471 MIC (μg/mL).
For data set [3], the system named is M. smegmatis 103599. Nature of the data set: Antimycobacterial activity toward atypical mycobacteria, MIC in broth. To be noted: Mycolicibacterium smegmatis, 103599; read-out: MIC (μg/mL) M. smegmatis 103599.
The subject of data set [4] is M. marinum 6423. The data set is described as above. The note with it: Mycobacterium marinum, 6423; read-out: MIC (μg/mL) M. marinum 6423.
Data set [5] has as its system M. avium 103317. The data set is described as above. To be noted: Mycobacterium avium, 103317; read-out: MIC (μg/mL) M. avium 103317.
Data set [6] relates to intracellular M. tuberculosis. The data set can be described thus: Inhibitory activity on intramacrophagic mycobacteria in U937 cells differentiated into macrophages. The note with it: Mycobacterium tuberculosis, read-out: MIC (μg/mL) Inhibition of intramacrophagic mycobacteria. The protocol: Inhibitory Activity of 6e and 7c on Intramacrophagic Mycobacteria.
The bactericidal activity of such compounds on intracellular mycobacteria was studied on U937 cells (INC-FLOW), a human hystiocytic cell line. Cells were differentiated into macrophages with 20 ng/mL of phorbol myristate acetate (PMA, Sigma) and grown in RPMI 1640 medium with 10% fetal calf serum.

Each structure is given as a SMILES string. Values after ≈ are worked out from the molar mass of the structure shown.

`Cc1ccc(-c2cc(CN3CCSCC3)c(C)n2-c2ccc(F)cc2)cc1` [Compound 6e, N-(p-fluorophenyl)-2-methyl-3-thiomorpholinomethyl-5-(p-methylphenyl)pyrrole]: the “MNTD50 (μg/mL) VERO cells” value in data set [1] stood at 64 µg/mL. Moreover, the MIC in data set [2] came to 0.4 µg/mL (≈ 1.05 µM); in data set [3], 16 µg/mL (≈ 42 µM); in data set [4], 8 µg/mL (≈ 21 µM); in data set [5], 8 µg/mL (≈ 21 µM); in data set [6] it was 3 µg/mL (≈ 7.88 µM).
Turning to `Cc1c(CN2CCSCC2)cc(-c2ccc(F)cc2)n1-c1ccccc1F` [Compound 7c, N-(o-fluorophenyl)-2-methyl-3-thiomorpholinomethyl-5-(p-fluorophenyl)pyrrole], the “MNTD50 (μg/mL) VERO cells” value in data set [1] was determined as 8 µg/mL. Besides, the MIC in data set [2] was 0.5 µg/mL (≈ 1.3 µM); in data set [3], 8 µg/mL (≈ 20.8 µM); in data set [4], greater than 16 µg/mL; in data set [5] it was 8 µg/mL (≈ 20.8 µM); in data set [6], 3 µg/mL (≈ 7.8 µM).
As for `CO[C@H]1/C=C/O[C@@]2(C)Oc3c(C)c(O)c4c(O)c(c(/C=N/N5CCN(C)CC5)c(O)c4c3C2=O)NC(=O)/C(C)=C\C=C\[C@H](C)[C@H](O)[C@@H](C)[C@@H](O)[C@@H](C)[C@H](OC(C)=O)[C@@H]1C` [Rifampin, reference compound], the “MNTD50 (μg/mL) VERO cells” value in data set [1] came to 64 µg/mL. Further, the MIC in data set [2] came to 0.3 µg/mL (≈ 0.365 µM); in data set [3], 32 µg/mL (≈ 38.9 µM); in data set [4], 0.6 µg/mL (≈ 0.729 µM); in data set [5] it was 0.3 µg/mL (≈ 0.365 µM); in data set [6], 3 µg/mL (≈ 3.65 µM). The “M. tuberculosis 103471 MIC” value in data set [2] (extracellular M. tuberculosis 103471) was determined as 0.3 µg/mL.
